# Data published in ChEMBL document CHEMBL5226302, “Small-Molecule Inhibitors Targeting the Canonical WNT Signaling Pathway for the Treatment of Cancer” (J Med Chem, 2021).
# Columns and labels:
# [1] = Inhibition of Wnt pathway (unknown origin); design: species or system Homo sapiens
# [2] = Plasma concentration in mouse at 5 mg/kg, po measured after 24 hr; format: ADME, organism-based
# [3] = biological target: Catenin beta-1/Transcription factor 7 (Homo sapiens, UniProt P35222+P36402); assay: Inhibition of beta catenin/TCF (unknown origin) by immunoprecipitation method; format: protein assay
# Catenin beta-1/Transcription factor 7, sequence (P36402 whole entry): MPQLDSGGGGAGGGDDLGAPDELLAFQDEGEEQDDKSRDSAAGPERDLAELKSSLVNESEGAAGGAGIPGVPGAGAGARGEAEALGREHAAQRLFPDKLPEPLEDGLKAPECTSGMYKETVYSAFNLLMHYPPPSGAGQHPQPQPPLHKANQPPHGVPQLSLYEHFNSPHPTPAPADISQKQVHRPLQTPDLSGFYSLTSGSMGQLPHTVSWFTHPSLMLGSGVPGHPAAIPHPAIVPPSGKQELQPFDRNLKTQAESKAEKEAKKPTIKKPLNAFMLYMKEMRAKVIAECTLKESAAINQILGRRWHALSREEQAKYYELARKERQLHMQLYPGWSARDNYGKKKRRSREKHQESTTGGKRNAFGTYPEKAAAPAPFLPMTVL
# Catenin beta-1/Transcription factor 7, sequence (P35222 whole entry): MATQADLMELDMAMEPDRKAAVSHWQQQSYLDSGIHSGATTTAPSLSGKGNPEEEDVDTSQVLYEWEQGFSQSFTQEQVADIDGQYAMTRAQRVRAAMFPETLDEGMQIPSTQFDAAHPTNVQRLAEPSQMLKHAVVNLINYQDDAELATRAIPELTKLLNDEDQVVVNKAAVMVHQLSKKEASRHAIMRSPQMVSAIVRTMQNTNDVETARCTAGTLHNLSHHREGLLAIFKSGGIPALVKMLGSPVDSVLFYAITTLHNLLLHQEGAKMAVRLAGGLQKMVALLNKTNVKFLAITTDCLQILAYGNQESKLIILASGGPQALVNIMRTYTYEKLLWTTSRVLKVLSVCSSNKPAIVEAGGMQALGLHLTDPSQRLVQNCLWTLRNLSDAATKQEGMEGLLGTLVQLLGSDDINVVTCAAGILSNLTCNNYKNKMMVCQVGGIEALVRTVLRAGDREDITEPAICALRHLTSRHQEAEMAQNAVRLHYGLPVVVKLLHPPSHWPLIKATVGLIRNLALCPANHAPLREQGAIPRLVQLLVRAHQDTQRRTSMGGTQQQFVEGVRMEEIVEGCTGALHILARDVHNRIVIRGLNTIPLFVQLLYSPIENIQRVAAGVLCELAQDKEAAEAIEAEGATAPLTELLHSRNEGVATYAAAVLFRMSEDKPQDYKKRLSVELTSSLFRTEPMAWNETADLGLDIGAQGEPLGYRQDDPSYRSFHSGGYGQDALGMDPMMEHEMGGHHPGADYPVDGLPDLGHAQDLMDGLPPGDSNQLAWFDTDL
# [4] = Half life of compound in PBS buffer; format: physicochemical
# [5] = Inhibition of TBC (unknown origin); design: species or system Homo sapiens
# [6] = system: HeLa; assay: Antiproliferative activity against human HeLa cell line assessed as cell growth inhibition; format: functional, cell-based
# [7] = cells; details: Homo sapiens, COLO 320DM
# [8] = biological target: T1, Poly [ADP-ribose] polymerase tankyrase-1 (Homo sapiens, UniProt O95271); assay: Inhibition of human TNKS1 (1030 to 1317 residues) measured after 20 hrs
# T1 sequence (O95271 whole entry): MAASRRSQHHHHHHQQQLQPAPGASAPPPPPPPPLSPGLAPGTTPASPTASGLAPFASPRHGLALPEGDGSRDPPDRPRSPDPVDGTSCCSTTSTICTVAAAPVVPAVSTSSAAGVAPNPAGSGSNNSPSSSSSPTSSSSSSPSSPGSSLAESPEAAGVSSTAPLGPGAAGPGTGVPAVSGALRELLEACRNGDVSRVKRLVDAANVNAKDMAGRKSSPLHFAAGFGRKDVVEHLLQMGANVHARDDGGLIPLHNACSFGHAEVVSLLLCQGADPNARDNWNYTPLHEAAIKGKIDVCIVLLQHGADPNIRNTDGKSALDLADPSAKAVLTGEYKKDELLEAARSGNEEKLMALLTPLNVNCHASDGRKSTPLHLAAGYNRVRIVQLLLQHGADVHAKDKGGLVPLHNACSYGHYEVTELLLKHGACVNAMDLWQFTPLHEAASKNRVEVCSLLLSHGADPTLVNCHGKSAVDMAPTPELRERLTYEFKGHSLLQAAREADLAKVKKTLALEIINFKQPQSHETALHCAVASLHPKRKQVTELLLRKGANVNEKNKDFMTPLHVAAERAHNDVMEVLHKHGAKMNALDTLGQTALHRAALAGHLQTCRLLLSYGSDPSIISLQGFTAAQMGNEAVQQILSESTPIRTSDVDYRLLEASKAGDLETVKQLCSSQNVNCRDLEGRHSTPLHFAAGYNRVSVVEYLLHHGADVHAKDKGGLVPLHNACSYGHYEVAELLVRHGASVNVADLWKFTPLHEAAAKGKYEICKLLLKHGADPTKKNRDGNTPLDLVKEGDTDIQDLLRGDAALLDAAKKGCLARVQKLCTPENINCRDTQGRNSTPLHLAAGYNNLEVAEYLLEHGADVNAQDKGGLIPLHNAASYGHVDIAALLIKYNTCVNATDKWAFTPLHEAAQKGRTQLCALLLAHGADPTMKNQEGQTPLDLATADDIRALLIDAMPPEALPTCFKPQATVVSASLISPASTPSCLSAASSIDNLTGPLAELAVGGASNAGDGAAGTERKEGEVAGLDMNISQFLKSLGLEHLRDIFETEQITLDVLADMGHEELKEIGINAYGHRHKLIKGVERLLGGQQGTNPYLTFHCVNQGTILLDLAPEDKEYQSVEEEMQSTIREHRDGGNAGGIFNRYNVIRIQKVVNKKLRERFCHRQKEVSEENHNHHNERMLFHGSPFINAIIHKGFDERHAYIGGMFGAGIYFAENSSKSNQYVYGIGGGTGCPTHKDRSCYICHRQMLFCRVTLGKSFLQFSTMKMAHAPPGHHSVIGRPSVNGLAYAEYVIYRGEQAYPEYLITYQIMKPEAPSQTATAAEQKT
# [9] = biological target: T2, Poly [ADP-ribose] polymerase tankyrase-2 (Homo sapiens, UniProt Q9H2K2); assay: Inhibition of human TNKS2 (873 to 1162 residues) measured after 15 hrs in presence of NAD+ by fluorescence assay
# T2 sequence (Q9H2K2 whole entry): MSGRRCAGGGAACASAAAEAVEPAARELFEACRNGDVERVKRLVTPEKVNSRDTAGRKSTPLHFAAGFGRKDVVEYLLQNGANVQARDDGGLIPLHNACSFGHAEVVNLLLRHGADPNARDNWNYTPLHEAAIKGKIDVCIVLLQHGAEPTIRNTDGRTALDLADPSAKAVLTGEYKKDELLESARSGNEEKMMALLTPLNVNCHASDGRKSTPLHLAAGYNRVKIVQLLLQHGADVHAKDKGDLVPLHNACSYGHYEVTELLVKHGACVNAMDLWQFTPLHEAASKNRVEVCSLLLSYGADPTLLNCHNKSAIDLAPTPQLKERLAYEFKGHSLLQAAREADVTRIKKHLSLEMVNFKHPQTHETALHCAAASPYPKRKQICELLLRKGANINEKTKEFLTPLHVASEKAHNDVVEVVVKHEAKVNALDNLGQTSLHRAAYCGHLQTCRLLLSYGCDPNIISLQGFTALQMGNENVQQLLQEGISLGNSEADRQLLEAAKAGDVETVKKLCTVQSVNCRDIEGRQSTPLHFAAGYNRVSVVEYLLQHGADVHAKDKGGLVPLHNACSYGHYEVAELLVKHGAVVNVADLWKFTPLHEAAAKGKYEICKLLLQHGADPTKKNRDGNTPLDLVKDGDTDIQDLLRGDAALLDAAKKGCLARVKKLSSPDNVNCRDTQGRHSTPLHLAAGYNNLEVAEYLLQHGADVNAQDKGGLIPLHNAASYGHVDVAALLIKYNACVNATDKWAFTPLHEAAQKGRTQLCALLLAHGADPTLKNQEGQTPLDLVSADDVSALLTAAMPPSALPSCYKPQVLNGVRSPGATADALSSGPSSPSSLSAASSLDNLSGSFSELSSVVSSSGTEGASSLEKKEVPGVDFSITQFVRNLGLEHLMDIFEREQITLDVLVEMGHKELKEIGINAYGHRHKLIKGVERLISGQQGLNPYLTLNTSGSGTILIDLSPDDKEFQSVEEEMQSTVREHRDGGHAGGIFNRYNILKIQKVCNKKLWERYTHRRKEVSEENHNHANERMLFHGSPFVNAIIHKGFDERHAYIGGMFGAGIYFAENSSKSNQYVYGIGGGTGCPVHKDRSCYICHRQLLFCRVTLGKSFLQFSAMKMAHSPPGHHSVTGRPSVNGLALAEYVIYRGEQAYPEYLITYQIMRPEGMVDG
# [10] = Chemical stability of the compound at pH 7.4 measured after 24 hrs; format: physicochemical; details: buffer, read-out: Stability
# [11] = biological target: T2, Poly [ADP-ribose] polymerase tankyrase-2; assay: Inhibition of TNKS2 (unknown origin)
# [12] = Oral bioavailability in mouse at 2.5 mg/kg; format: ADME, organism-based; details: in vivo
# [13] = Solubility of the compound at pH 7.4; format: physicochemical; details: buffer
# [14] = In vivo inhibition of MMTV-WNT1 in mouse model assessed as reduction in tumor growth at 1 mg/kg, po administered once daily for 2 weeks; format: functional; details: 336 h
# [15] = Oral bioavailability in mouse; format: ADME, organism-based; details: in vivo
# [16] = In vivo inhibition of MMTV-WNT1 in mouse model assessed as reduction in tumor growth at 0.3 mg/kg, po administered once daily for 2 weeks; format: functional; details: 336 h
# [17] = Oral bioavailability in dog; format: ADME, organism-based, Canis lupus familiaris; details: in vivo
# [18] = In vivo inhibition of MMTV-WNT1 in mouse model assessed as reduction in tumor growth at 3 mg/kg, po administered once daily for 2 weeks; format: functional; details: 336 h
# [19] = Oral bioavailability in rat at 2 mg/kg; format: ADME, organism-based; details: in vivo
# [20] = biological target: T2, Poly [ADP-ribose] polymerase tankyrase-2; assay: Binding affinity to TNKS2 (unknown origin) assessed as inhibition constant
# [21] = biological target: T2, Poly [ADP-ribose] polymerase tankyrase-2; assay: Binding affinity to human TNKS2 ARC4 assessed as dissociation constant
# [22] = In vivo inhibition of WNT1 in mouse model assessed as reduction in tumor volume by measuring T/C ratio at 1 mg/kg; format: functional
# [23] = In vivo inhibition of WNT1 in mouse model assessed as reduction in tumor volume by measuring T/C ratio at 3 mg/kg; format: functional
smiles,measurement,setting,value
Cc1ccc2nc(NC(=O)CSc3nc4c(c(=O)n3-c3ccccc3)SCC4)sc2c1,IC50,[1],27 nM
Cc1cc(-c2ccc(CC(=O)Nc3ccc(-c4cccnc4)cc3)cc2)ccn1,IC50,[1],0.074 nM
same,concentration at 24 h,[2],1 nM
O=C1[C@H](Cc2ccc(O)cc2)N2C(=O)CCN(C(=O)NCc3ccccc3)[C@H]2CN1Cc1cccc2ccccc12,IC50,[3],3000 nM
COc1ccccc1NC(=O)c1ccc(NC(=O)CCc2nc3ccccc3c(=O)[nH]2)cc1,half-life,[4],0.667 h
same,IC50,[5],160 nM
O=C(CSc1nc2c(c(=O)n1-c1ccccc1)SCC2)Nc1ccc(-c2ccccc2)cn1,EC50,[6],0.5 nM
Nc1nonc1NC(=O)Cn1c2ccccc2c2nc3nonc3nc21,IC50,[7],31000 nM
O=C(O)CCCn1c2ccccc2c2nc3nonc3nc21,IC50,[7],15000 nM
CN1CCCc2c1cc(-c1ccc(Br)cc1)[nH]c2=O,IC50,[8],423 nM
same,IC50,[9],6.1 nM
Cc1cc(-c2ccc(OC(C)C(=O)Nc3ccc(-c4cnccn4)cn3)cc2)ccn1 (stereo unspecified),remaining at 24 h,[10],71%
same,IC50,[1],0.11 nM
COc1ccc(C2(CNC(=O)c3ccc(NC(=O)c4ccco4)cc3)CCOCC2)cc1,IC50,[11],830 nM
Cc1cc(-c2ccc(CC(=O)Nc3ccc4c(c3)[nH]c3ccccc34)cc2)ccn1,IC50,[1],2.3 nM
O=C(CN1CCCC2=C1C(=O)N(C1CC1)C2=O)Nc1ccc(-c2cccnc2)nn1,bioavailability,[12],81%
same,solubility,[13],60 µg/mL
C[C@H](Nc1ccc(-c2ccnn2C)nc1)C(=O)Nc1ccc(-c2cccnc2)cn1,bioavailability,[12],100%
same,solubility,[13],73 µg/mL
CN1C(=O)C2=C(C1=O)N(CC(=O)Nc1ccc(-c3nccs3)cc1)CCC2,solubility,[13],15 µg/mL
O=C(COc1ccc(-n2ccnc2)cc1)Nc1ccc(-c2ccccc2)cc1,bioavailability,[12],< 1%
same,solubility,[13],< 1 µg/mL
CCCn1c(SCC(=O)Nc2nc3ccc(OC)cc3s2)nnc1-c1ccncc1,IC50,[1],12 nM
CC(=O)N1CCN(c2ccc(NC(=O)Cc3cnc(-c4ccnc(F)c4)c(C)c3)nc2)CC1,inhibition in vivo at 1 mg/kg,[14],74%
same,bioavailability,[15],72%
same,inhibition in vivo at 0.3 mg/kg,[16],15%
same,IC50,[1],0.8 nM
same,bioavailability,[17],96%
same,inhibition in vivo at 3 mg/kg,[18],84%
same,bioavailability,[19],72%
NS(=O)(=O)c1ccc(NC(=S)N2CCN(C/C=C/c3ccccc3)CC2)cc1,IC50,[7],2000 nM
CCc1ccc(OCC(=O)Nc2sc(C)c(C)c2C(N)=O)c(F)c1,Ki,[20],27900 nM
CC(=O)N[C@@H](CCCNC(=N)N)C(=O)N[C@@H](CCC(=O)O)C(=O)N[C@H]1CCCCn2cc(nn2)CCCCCc2cn(nn2)CCCC[C@H](C(=O)N[C@H](CCC(=O)O)C(N)=O)NC(=O)CNC(=O)[C@@H](CC(=O)O)NC(=O)CNC1=O,Kd,[21],2800 nM
Cc1cc(-c2ccc(CNC(=O)c3ccc4c(c3)[nH]c3ccccc34)cc2F)ccn1,IC50,[1],0.5 nM
N#Cc1ccc(Oc2ccc(NC(=O)CCSc3nc4ccccc4c(=O)[nH]3)cc2)cc1,half-life,[4],2.8 h
same,IC50,[5],1.9 nM
COc1ccc(-n2c(C(=O)NCC(=O)Nc3nc4ccc(OC)cc4s3)nc3ccccc3c2=O)cc1,IC50,[1],58 nM
CN(C)c1ccc2c(-c3ccc(C(=O)NCCCCCC(=O)N[C@@H](CCCNC(=N)N)C(=O)N[C@@H](CCC(=O)O)C(=O)N[C@H]4CCn5cc(nn5)-c5cc(C(=O)O)cc(c5)C5=CN(CC[C@@H](C(=O)N[C@@H](CCC(=O)O)C(N)=O)NC(=O)CNC(=O)[C@H](CC(=O)O)NC(=O)CNC4=O)NN5)cc3C(=O)[O-])c3ccc(=[N+](C)C)cc-3oc2c1,Kd,[21],440 nM
Cc1cc(-c2ncc(CC(=O)Nc3ccc(-c4cnccn4)cn3)cc2C)ccn1 [WNT-974],inhibition in vivo at 1 mg/kg,[22],47%
same,inhibition in vivo at 3 mg/kg,[23],63%
same,IC50,[1],1 nM
